Reference: US20160000066A1, “Furfural derivatives as a vehicle” (priority 2013, published 2016)

Experiments:
Format in all cases: physicochemical
[1] = Solubilization of resins in the test solvent: BADGE DER 331; details: BADGE DER 331 in the compound as solvent
Experimental: (§1) The following table lists the solubilities obtained for four resins tested: BADGE DER 331 epoxy resin sold by DOW CHEMICAL, Palatal A400-01 polyester resin sold by DSM, Novolac DEN 425 epoxy resin sold by DOW CHEMICAL and TGPA resin available from Sigma Aldrich.
(§2) A single solubility test was carried out per solvent/resin pair, at a working concentration of 100 g/l, at ambient temperature. The tests were carried out on the milliliter scale (i.e., 0.5 g/5 ml). The tests are carried out in transparent glass flasks. The resin (0.5 g) is weighed into the flask and then the required volume (5 ml) of test solvent is introduced into this same flask. Stirring is carried out using a vortex mixer for 1 to 5 minutes. The results for solubility of the resins in the solvents tested, shown in the table below, are obtained by visual observations.

[2] = Solubilization of resins in the test solvent: Palatal A400-01; details: Palatal A400-01 in the compound as solvent
Experimental: as §1, §2

[3] = Solubilization of resins in the test solvent: Novolac DEN 425; details: Novolac DEN 425 in the compound as solvent
Experimental: as §1, §2

[4] = Solubilization of resins in the test solvent: TGPA; details: TGPA in the compound as solvent, visual
Experimental: as §1, §2

[5] = adjusted protocol: solvent heated on a water bath at 30° C. before the test

| SMILES | Solubility at ambient temperature (100 g/l) [1, 5] | Solubility at ambient temperature (100 g/l) [2, 5] | Solubility at ambient temperature (100 g/l) [3, 5] | Solubility at ambient temperature (100 g/l) ([1]; ambient temperature, visual) | Solubility at ambient temperature (100 g/l) ([2]; ambient temperature, visual) | Solubility at ambient temperature (100 g/l) ([3]; ambient temperature, visual) | Solubility at ambient temperature (100 g/l) [4] |
| --- | --- | --- | --- | --- | --- | --- | --- |
| CC(=O)/C=C/c1ccco1 [(1)] | Soluble* | Soluble* | Soluble* | – | – | – | – |
| COC(=O)c1ccco1 [(8)] | – | – | – | Soluble | Soluble | Soluble | Soluble |
| CCCCCCCCN=Cc1ccco1 [(16)] | – | – | – | Partial | Soluble | Soluble | Soluble |
| Cc1ccc(C=O)o1 [(17)] | – | – | – | Soluble | Soluble | Soluble | Soluble |

Further lines, results first:

| Solubility at ambient temperature (100 g/l) [1, 5] | Solubility at ambient temperature (100 g/l) [2, 5] | Solubility at ambient temperature (100 g/l) [3, 5] | Solubility at ambient temperature (100 g/l) ([1]; ambient temperature, visual) | Solubility at ambient temperature (100 g/l) ([2]; ambient temperature, visual) | Solubility at ambient temperature (100 g/l) ([3]; ambient temperature, visual) | Solubility at ambient temperature (100 g/l) [4] | SMILES |
| --- | --- | --- | --- | --- | --- | --- | --- |
| – | – | – | Soluble | Soluble | Soluble | Soluble | CC(C)C(=O)/C=C/c1ccco1 [(3)] |
| – | – | – | Partial | Soluble | Soluble | – | CCCOC(=O)c1ccco1 [(6)] |
| – | – | – | Soluble | Soluble | Soluble | Soluble | CCCCCOC(=O)c1ccco1 [(9)] |
| – | – | – | Soluble | Soluble | Soluble | Soluble | O=C(OCCc1ccccc1)c1ccco1 [(10)] |
| – | – | – | Partial | Soluble | Soluble | Soluble | CCCCN=Cc1ccco1 [(15)] |
